From ChEMBL document CHEMBL1143524, “Anti-tumor abietane diterpenes from the cones of Sequoia sempervirens” (2005)
In brackets after ≈: the same amount, converted by molar mass.

Tests used:
Type in all cases: functional
[1] = tested on: MDA-MB-231; experiment: Growth inhibitory activity against human MDA-MB-231 breast tumor cell line
[2] = tested on: HCT-116; experiment: Growth inhibitory activity against human HCT116 colon tumor cell line
[3] = tested on: A549; experiment: Inhibitory activity against human A549 lung tumor cell proliferation
[4] = tested on: SW-620; experiment: Growth inhibitory activity against human SW620 colon tumor cell line
[5] = tested on: NCI-H23; experiment: Growth inhibitory activity against human NCI-H23 lung tumor cell line
[6] = species: Rattus norvegicus; experiment: Growth inhibitory activity against H-ras transformed rat 2 tumor cell line; conditions: Rat2

SMILES | GI50 [1] | GI50 [2] | GI50 [3] | GI50 [4] | GI50 [5] | GI50 [6]
CC(C)c1cc2c(cc1O)[C@@]1(C)CCCC(C)(C)[C@@H]1CC2 [FERRUGINOL] | < 50 µg/mL | < 50 µg/mL | < 50 µg/mL | < 50 µg/mL | < 50 µg/mL | –
CC(C)c1cc2c(cc1O)[C@@]1(C)CCCC(C)(C)[C@@H]1CC2=O [SUGIOL] | < 50 µg/mL | < 50 µg/mL | < 50 µg/mL | < 50 µg/mL | < 50 µg/mL | –
CC(C)c1cc2c(cc1O)[C@@]1(CO)CCCC(C)(C)[C@@H]1CC2 [PISIFEROL] | 8.34 µg/mL (≈ 27.6 µM) | 4.34 µg/mL (≈ 14.3 µM) | 2.9 µg/mL (≈ 9.59 µM) | 8.22 µg/mL (≈ 27.2 µM) | 2.8 µg/mL (≈ 9.26 µM) | 2.3 µg/mL (≈ 7.6 µM)
CC(C)c1cc2c(cc1O)[C@@]1(C)CCCC(C)(C)[C@@H]1C(O)C2=O (some centres not stated) | 3.64 µg/mL (≈ 11.5 µM) | 2.52 µg/mL (≈ 7.96 µM) | 1.42 µg/mL (≈ 4.49 µM) | 3.98 µg/mL (≈ 12.6 µM) | 2.21 µg/mL (≈ 6.98 µM) | 3.5 µg/mL (≈ 11.1 µM)
CC(C)c1cc2c(cc1O)[C@@]1(C)CCC[C@@](C)(CO)[C@@H]1CC2 [18-HYDROXYFERRUGINOL] | < 50 µg/mL | < 50 µg/mL | < 50 µg/mL | < 50 µg/mL | < 50 µg/mL | –
